According to patent US12030904B2 (priority 2020, dated 2024):
Like-named read-outs stand apart in the source and are kept apart here.

Key:
MT4 = MT4 cytotoxicity (CC50); details: read-out: MT4 CC50; Table 2a
[1] = system: Recombinant Respiratory Syncytial virus strain A2 containing the firefly luciferase reporter (RSV-Fluc); assay: microbe, parasite or virus in culture; format: cell-based
SARS-CoV-2 = assay: microbe, parasite or virus in culture; format: cell-based
MT4 cytotoxicity (CC50) = details: human, MT4 cells, MT4 CC50, Table 2a
[2] = A549 cytotoxicity analysis (CellTiter-Glo); format: cell-based; details: human, A549 cells; Table 3
Description: The cytotoxicity of compounds was determined in A549 cells in the following manner. Compounds (40 nL) were spotted onto 384-well Grenier plates prior to seeding 5000 A549 cells/well in a volume of 40 μL culture medium. The plates were incubated at 37° C. for 48 hours with 5% CO2. On day 2, 40 μL of CellTiter-Glo (Promega) was added and mixed 5 times. Plates were read for luminescence on an Envision (PerkinElmer) and the CC50 (compound concentration for reducing 50% of luminescence signal as a measure of cell viability) were calculated using a nonlinear regression model (four parameters). Two experiments were performed with technical duplicates.

[3] = human respiratory syncytial virus, NHBE, 72 h, read-out: RSV-Fluc EC50 (NHBE), NHBE cells, three days, Table 2
[4] = human respiratory syncytial virus, NHBE, read-out: RSV EC50, Table 2a
[5] = Severe acute respiratory syndrome coronavirus 2, read-out: SARS EC50

| Compound | CC50 (MT4) [nM] | EC50 ([1]; read-out: RSV EC50, Table 2a) [nM] | EC50 ([1]; read-out: RSV-Fluc EC50 (NHBE), NHBE cells, three days, Table 2) [nM] | EC50 (SARS-CoV-2; read-out: SARS EC50) [nM] | CC50 (MT4 cytotoxicity (CC50)) [nM] | EC50 [1, 3] [nM] | EC50 [1, 4] [nM] | CC50 at 48 h [2] [nM] | EC50 (SARS-CoV-2; Severe acute respiratory syndrome coronavirus 2, Table 3, read-out: SARS-CoV-2 EC50) [nM] | EC50 (SARS-CoV-2; [5]) [nM] |
| --- | --- | --- | --- | --- | --- | --- | --- | --- | --- | --- |
| CCCCCCCCCCCCCCCCCCOC[C@H](COP(=O)(O)OC[C@H]1O[C@@](C#N)(c2ccc3c(N)ncnn23)[C@H](O)[C@@H]1O)OC(C)c1ccccc1 (single isomer, unassigned) [Example 28] | 1060 | 75 | 70 | 2300 |  |  |  |  |  |  |
| CCCCCCCCCCCCCCCCOC[C@H](COP(=O)(O)OC[C@H]1O[C@@](C#N)(c2ccc3c(N)ncnn23)[C@H](O)[C@@H]1O)OCc1cc(F)cc(C#N)c1 [Example 71, ((2R,3S,4R,5R)-5-(4-aminopyrrolo[2,1-f][1,2,4]triazin-7-yl)-5-cyano-3,4-dihydroxytetrahydrofuran-2-yl)methyl ((R)-2-((3-cyano-5-fluorobenzyl)oxy)-3-(hexadecyloxy)propyl) hydrogen phosphate] |  |  |  |  | 404 | 30 | 3 | 370 | 130 | 130 |
| CCCCCCCCCCCCCCCCCCOC[C@H](COP(=O)(O)OC[C@H]1O[C@@](C#N)(c2ccc3c(N)ncnn23)[C@H](O)[C@@H]1O)Oc1ccc(C#N)c(OC(C)C)c1 [Example 72, ((2R,3S,4R,5R)-5-(4-aminopyrrolo[2,1-f][1,2,4]triazin-7-yl)-5-cyano-3,4-dihydroxytetrahydrofuran-2-yl)methyl ((R)-2-(4-cyano-3-isopropoxyphenoxy)-3-(octadecyloxy)propyl) hydrogen phosphate] |  |  |  |  | 279 | 8 | 17 | 240 |  | 8350 |
